Source: paper PMC7203245, “Lacosamide intake during pregnancy increases the incidence of foetal malformations and symptoms associated with schizophrenia in the offspring of mice” (Scientific Reports, 2020)

Tests used:
adult male mice [1] = assay: Pain assay (hot plate); type: in vivo; conditions: 120 mg/kg LCM during gestation; at 52 and 55 degrees relative to control
Experimental: (§1) All trials were performed by an experimenter blind to the drug treatment.
Pain assay. Pain behaviour was assessed in mice using the hot plate. For the hot-plate test, a glass cylinder (16 cm high, 16 cm in diameter) was used to constrain the mice to the heated surface of the plate. The plate surface was maintained at 50-55 ± 0.5 °C and the latency to commence paw-licking was measured, using a 30 s cut-off time for each of the tested temperatures. Each temperature was tested with 1h apart.

[2] = LCM and related compounds (RC) in embryos and mothers' serum by high-resolution MS/MSe; type: in vivo, mice; conditions: Maternal Dose 10 mg/kg
Experimental: Samples were extracted as described previously[25] with slight modifications. Briefly, embryos were rinsed with cold saline and ultrapure water, and their wet-weight was determined. […] The mixture was vortexed vigorously for 3 min and centrifuged at 13,000 g for 5 min. The supernatant was transferred to a new Eppendorf tube and evaporated to dryness in a stream of nitrogen gas. The residue was reconstituted with 50 µL of LC-MS Ultrapure water, vortexed for 20 s and centrifuged at 13,000 g for 5 min. The supernatant was transferred to a conic micro insert to be injected onto the UHPLC system.
MS spectra data were collected between m/z 50 and 1000, and MS/MS spectra were registered between 50-300 Da. […] The MS^e procedure was used to identify metabolites in positive ionization mode. UPLC–QTOF-MS^e detection collects data using two scan functions, providing fragment ion information without precursor ion selection. A characteristic m/z in the low energy function allows identification through the fragment ions obtained with the high collision energy function. Two functions were acquired at different collision energies: a low energy function obtained at 2 eV; and a high-energy function obtained using a collision energy ramp ranging from 15 to 30 eV and spectra data collected between m/z 50 and 800. The data station operating the software was a MassLynx version 4.1, while metabolites were identified by means of Metabolynx XS (Waters, Micromass, Manchester, UK).
In this work the following routes were selected for these searches: phase I metabolites Reduction (+H2), Hydroxylation (O), Hydration (+H2O), 2xHydroxylation (+O2), Deacetylation (-C2H2O) and Demethylation (-CH2); and phase II metabolites Acetylation (+C2H2O) and Glucuronide (+C6H8O6).

adult male mice [3] = assay: Y maze working memory test; type: in vivo; conditions: mice from dams exposed to LCM vs control
Experimental: as §1
Y maze. The Y maze used had three equal sized arms (8 x 40 x 20 cm), with white opaque walls at a 120° angle from each other. After introduction to the centre of the maze, the mice was allowed to freely explore the three arms during 5 minutes, recording the number of arm entries and the number of triads in order to calculate the alternation. An entry was considered to occur when all four limbs are within the arm. The success of the triplet was taken into account when mice visited the three arms in three consecutive arm entries showing normal novelty preference and working memory.

adult male mice [4] = assay: Sociability test; type: in vivo
Experimental: as §1
Sociability test. The social testing apparatus consisted of a rectangular arena (55 x 40 x 40 cm) in which a small, round wire cage (11 cm in height, with a bottom diameter of 9 cm, vertical bars 0.5 cm and horizontal bars spaced 1 cm apart) was placed in a corner, allowing nose contact between the bars but preventing fighting. The subject mouse was first placed in the arena for 5 minutes with the round wire cage empty. After that, a strange mouse was place in the round cage in […] and the subject was allowed to explore the entire social test box for 10 min. The time spent around the empty and occupied cage was measured with the aid of the camera fitted to the top of the box.

pups = assay: Neonatal behavioural tests of Fox's battery (developmental landmarks, locomotion, reflexes); type: in vivo, mice; conditions: P1 to P13; dams given 40 or 120 mg/kg during gestation
Experimental: In this part of the study, dams were treated until the day of delivery. After analysing the embryo toxicity data, the treatments were categorized as controls (saline vehicle solution alone), low dose (40 mg/kg) and high dose (120 mg/kg). […] The day of birth was designated as postnatal day (P) P0 and the litter size delivered by each dam was recorded, checking each pup for gross abnormalities. Pups were nursed by their natural dams until weaning and from PD 2, the pups were weighed and neonatal behavioural tests were carried out on 12 control mice, 12 low dose and 10 high dose mice from 7 litters. […]
The animal was placed face up, and the time taken to turn over and adopt a prone position with all four feet on the ground was assessed. […]
A mouse was placed at the edge of the table, with its forepaws and head extending over the edge. The response was scored as positive if the mouse turned around and crawled away at least 45° from the “cliff”. […]
The animal was placed face down on a 30° incline and the latency to turn 180° was recorded. […]
The total number of degrees turned by the pup during a 30 s period was recorded. […] The number of degrees was only scored in terms of completed 90° segments.
The latency of a mouse to walk a distance exceeding its body length on all four legs was measured on a flat surface covered with green paper. […]

adult male mice [5] = assay: Object recognition memory; type: in vivo; conditions: 1 hour after the training session; LCM in utero
Experimental: as §1
Object recognition memory. Mice were tested in a rectangular arena (55 x 40 x 40 cm) situated in a room with dim lighting and constant background noise. The object recognition protocol was described extensively elsewhere^2. Briefly, two equal objects were placed in the arena during a 15 minutes training phase and the animal’s memory of the original object was assessed by comparing the amount of time spent exploring the novel object against that for the familiar one in two sessions (of 10 minutes) performed 1 and 24h after training (for short-term and long-term memories [STM and LTM] respectively). The time spent exploring each object was recorded and the relative exploration of the novel object was expressed by a discrimination index [DI = (tnovel-tfamiliar)/(tnovel+tfamiliar)]. The criteria for exploration were based strictly on active exploration. Exploration of an object was defined as directing the nose toward the object at a distance of 1.5 cm and/or touching the object with the nose or vibrissae. Circling or sitting on the object were not considered exploratory behaviours.

In the case of `COC[C@@H](NC(C)=O)C(=O)NCc1ccccc1` [LCM, R-2-acetamido-N-benzyl-3-methoxypropionamide], the “thermal nociception in the hot plate test” value (adult male mice [1]) is reported as “significant hyperalgesia”, the “Embryos in which the LCM compound is present” value [2] is reported as “Embryo1 and 2” and the “arm alternation in Y-maze” value (adult male mice [3]; p = 0.04) is reported as “decrease in alternation”. The “locomotion in Y-maze” value (adult male mice [3]; p = 0.087) was “mild increase in locomotion”, the “social interaction with a strange mouse (sniffing time)” value (adult male mice [4]; 40 mg/kg in utero) was 183.4 ± 11.01 s and the “social interaction with a strange mouse (sniffing time)” value (adult male mice [4]; 120 mg/kg in utero) was 172.0 ± 10.78 s. The “postnatal somatometric development and reflexological analyses (body weight, developmental landmarks, locomotor activity, balance reflexes, suspension test)” value (pups) was “dose-dependent delay” and the “short-term memory in object recognition” value (adult male mice [5]) was “no effects”.
